PubChem BioAssay AID1355 (Sanford-Burnham Center for Chemical Genomics, 2008)
The source made the active and inactive calls.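 How the source made its calls: active means survival at least 30 percentage points above the stressed untreated control at any dose of the stressor; inactive means the rest.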

System: SW-1 melanoma, thapsigargin-induced death, ATPlite luminescence, 24 h
Experiment: protection from thapsigargin-induced SW-1 death, SAR follow-up, cell-based, SW-1 melanoma, ATP content luminescence (AID 1355)
Conditions: at 25 µM, stronger effect = higher value
[1] = measured here: thapsigargin 7.5 uM
[2] = measured here: thapsigargin 15 uM

Compound CC1(C)CC(=O)C2=C(C1)Nc1ccccc1NC2c1ccc(-c2ccccc2)cc1 (stereo not drawn) has a survival of 66%, a survival [1] of 69% and a survival [2] of 7%.
COc1ccc(C2CC(=O)C3=C(C2)Nc2ccccc2NC3c2cc(C)ccc2C)cc1 (stereo not drawn) showed a survival of 83%, a survival [1] of 72% and a survival [2] of 9%.
Work on CCCOc1ccc(C2Nc3ccccc3NC3=C2C(=O)CC(c2ccc(OC)c(OC)c2)C3)cc1 (stereo not drawn) yielded a survival of 83%, a survival [1] of 71% and a survival [2] of 3%.
For CCOc1cccc(C2Nc3ccccc3NC3=C2C(=O)CC(c2ccc(OC)cc2)C3)c1 (stereo not drawn), the survival was 33% (inactive), the survival [1] was 75% and the survival [2] was 3%.
COc1ccc(C2CC(=O)C3=C(C2)Nc2ccccc2NC3c2ccccc2C(F)(F)F)cc1OC (stereo not drawn) showed a survival of 98%, a survival [1] of 89% and a survival [2] of 7%.
COc1ccc(C2CC(=O)C3=C(C2)Nc2ccccc2NC3c2cccc(Oc3ccccc3)c2)cc1OC (stereo not drawn) gave a survival of 84%, a survival [1] of 77% and a survival [2] of 18%.
With CSc1ccc(C2Nc3ccccc3NC3=C2C(=O)CC(c2ccccc2)C3)cc1 (stereo not drawn) the survival was 74%, the survival [1] was 72% and the survival [2] was 23%.
COc1ccc(C2CC(=O)C3=C(C2)Nc2ccccc2NC3c2cccc(C(F)(F)F)c2)cc1OC (stereo not drawn) was tested, and the survival was 86%, the survival [1] was 75% and the survival [2] was 8%.
With COc1ccc(C2CC(=O)C3=C(C2)Nc2ccccc2NC3c2cccc(Br)c2)cc1OC (stereo not drawn) the survival was 67%, the survival [1] was 72% and the survival [2] was 7%.
In the case of O=C1CC(c2ccccc2)CC2=C1C(c1c(F)cccc1Cl)Nc1ccccc1N2 (stereo not drawn), the survival is reported as 73%, the survival [1] is reported as 72% and the survival [2] is reported as 3%.
In the case of CCOc1cc(C2Nc3ccccc3NC3=C2C(=O)CC(c2ccc(OC)cc2)C3)cc(Cl)c1O (stereo not drawn), the survival is reported as 30% (inactive), the survival [1] is reported as 71% and the survival [2] is reported as 2%.
